Our source for the T/C and Activity values is ChEMBL document CHEMBL3271954, “Antitumor agents. 25. Synthesis and antitumor activity of uracil and thymine alpha-methylene-gamma-lactones and related derivatives” (1977).

The source made the active and inactive calls. No cut-off for these calls is given here.

Holding throughout (assay type): functional
Holding throughout (settings): for T/C: route intraperitoneal

For one experiment, the system named is B16. Nature of the experiment: Antitumor activity against mouse B16 cells allografted in C57Bl/6 mouse at 25 mg/kg/day, ip administered for 2 weeks relative to control.
For a further experiment, the system named is W256. The experiment is described as follows: Antitumor activity against rat Walker 256 cells allografted in Sprague-Dawley rat at 2.5 mg/kg/day, ip relative to control.
The test system of another experiment is P388. The experiment is described as follows: Antitumor activity against mouse P388 cells allografted in DBA/2 mouse at 25 mg/kg/day, ip administered for 2 weeks relative to control.

One may read the T/C as the result in the treated group divided by that in the control group, in per cent. As to `C=C1C(=O)O[C@H]2[C@H]1[C@H](OC(=O)/C(C)=C/CO)C/C(C)=C/CC[C@@]1(CO)O[C@H]21`, the T/C in the experiment on B16 came to 111%; in the experiment with W256 it was 330%; with P388 it was 147%.
With `C=C1CC(C)(Cn2cc(C)c(=O)[nH]c2=O)OC1=O` (configuration not stated), the T/C came to 123% in the experiment with B16, 127% in the experiment with W256 and 127% in the experiment with P388.
With `C=C1C(=O)O[C@H]2/C=C(/C)[C@H](CO)C/C=C(\C)C[C@@H](OC(=O)/C(=C/CO)CO)[C@@H]12` [EUPAFORMOSANIN], the figures for the T/C in the experiment with B16, in the experiment on W256 and in the experiment with P388 were 113%, 471% and 147%, respectively.
On to `Cc1c[nH]c(=O)[nH]c1=O`, for which the outcome with B16, in the experiment with W256 and in the experiment on P388 was inactive.
Turning to `O=c1[nH]cc(F)c(=O)[nH]1` [FLUOROURACIL], the T/C was found to be 164% with B16 and 186% in the experiment with P388.
Regarding `N[C@@H](Cc1ccc(N(CCCl)CCCl)cc1)C(=O)O` [MELPHALAN], in the experiment with W256, the T/C is recorded as 317%.
As to `C=C1CC(C)(Cn2cc(COC(=O)c3cc(OC)c(OC)c(OC)c3)c(=O)[nH]c2=O)OC1=O` (configuration not stated), the values for the T/C with B16, in the experiment with W256 and with P388 were 129%, 209% and 142%, respectively.
For `C=C1CC(C)(Cn2ccc(=O)[nH]c2=O)OC1=O` (configuration not stated), in that order: 111%, 131% and 115%.
`C=C1CC(C)(Cn2cc(COC(=O)/C=C/c3ccccc3)c(=O)[nH]c2=O)OC1=O` (configuration not stated): the values for the T/C in the experiment with B16, in the experiment on W256 and with P388 were 141%, 211% and 130%, respectively.
Regarding `O=c1cc[nH]c(=O)[nH]1`, the outcome with B16, with W256 and with P388 was inactive.
